Data published in publication PMC3546861, “HLA-A*0201-restricted CD8^+ T-cell epitopes identified in dengue viruses” (Virology Journal, 2012).
Entries after “also recorded” stand apart in the source; their conditions may differ.

Assays:
[1] = test system: HLA-A*0201 transgenic mice; assay: IFN-γ ELISPOT assay on splenocytes of peptide-immunized mice; type: in vivo; details: mice immunized s.c. with peptide 50 μg/mouse in Freund's adjuvant, 5 weekly doses, splenocytes stimulated with cognate peptide 10 μg/ml, 24 h, background subtracted, mean ± SD, 4 mice/group
Method: (§1) HLA-A*0201 transgenic mice were subdivided into 12 groups (4 mice/group). Mice were inoculated subcutaneously with high-affinity peptide (50 μg/mouse) emulsified in Freund’s complete adjuvant. One week later, mice were immunized with the same peptide emulsified in Freund’s incomplete adjuvant. Mice were boosted three more times at weekly intervals. Mock-immunized (adjuvant alone) HLA-A*0201 transgenic mice and peptide-immunized C57BL/6 mice served as controls. One week after the final immunization, all mice were sacrificed and splenocytes extracted. ELISPOT and ICS assays were conducted to detect the frequencies of peptide-specific IFN-γ-producing cells. All animal were performed following the Institutional Animal Care and Use Committee-approved protocols.
Splenocytes were resuspended to a final concentration of 1 × 10^6 cells/ml in RPMI 1640 medium supplemented with 10% fetal bovine serum (FBS). ELISPOT assays were performed in pre-coated 96-well plates (U-CyTech Company, Netherlands). Splenocytes were seeded at 1 × 10^5 cells/well and exposed to either cognate or heterologous peptide at a final concentration of 10 μg/ml. Negative control wells contained splenocytes but no peptide. Positive control wells included cells plus phytohemagglutinin (PHA) at a final concentration of 10 μg/ml. All tests were carried out in duplicate wells, with plates incubated for 24 h at 37°C/5% CO2. Plates were washed and then incubated with biotinylated anti-mouse IFN-γ for 1 h at 37°C. After washing, plates were labeled with streptavidin-horseradish peroxidase, and developed using fresh ACE solution as a substrate. IFN-γ spots were counted using an ELISPOT reader (Beijing SageCreation Science Co. Ltd, Beijing, China). Peptide-specific T-cell frequency was expressed as SFCs/1 × 10^5 splenocytes. Background spots (negative control wells) were subtracted from test wells. A positive response to a peptide was defined as having > 5 SFCs/1 × 10^5 splenocytes after subtraction of the background.

[2] = biological target: HLA-A*0201 molecule of T2 cells (Homo sapiens, UniProt P04439, D140Y/D185E/D98H/E176V/E277Q/G131W/G231S/I119V/I121R/I166T/I218V/L300P/L318F/N151K/N90K/P208A/P217A/Q86G/Q94H/R138H/R169H/T345S); assay: MHC-peptide complex stabilization assay on T2 cells; type: binding; parameters: key: FI = (MFI sample − MFI background) / MFI background; details: serum-free RPMI 1640, 1 h 37°C, 12 h 26°C, 3 h 37°C, FITC anti-HLA-A*0201, flow cytometry, FI = (MFI sample - MFI background)/MFI background
Method: Figure 1 The affinity of candidate epitopes for HLA-A*0201 molecules. T2 cells were incubated in RPMI 1640 medium lacking peptides (red) or containing low peptide (1 μg/ml) (green) or intermediate peptide (10 μg/ml) (purple) or high peptide (100 μg/ml) (blue) for 15 h and stained with FITC-conjugated anti-HLA-A*0201 antibody. Then, mean fluorescence intensity (MFI) was measured using flow cytometry.
The ability of peptides to stabilize MHC molecules on the surface of T2 cells was measured as described previously. T2 cells (2 × 10^5 cells/0.5 ml) were incubated in serum-free RPMI 1640 medium in the presence of different concentrations of peptide (1, 10, 100 μg/ml) for 1 h at 37°C/5% CO2 incubator. Cells were then incubated at 26°C for 12 h, and then returned to 37°C for a 3 h incubation. Finally, T2 cells were stained with FITC-conjugated anti-HLA-A*0201 antibody (BD Pharmingen, USA) for 40 min at 4°C. T2 cells incubated in serum-free RPMI 1640 medium without peptides served as a negative control (background). Mean fluorescence intensity (MFI) of T2 cells was recorded with a FACS Calibur flow cytometer (BD bioscience, USA), and results expressed as fluorescence index (FI). The following formula was used to calculate the FI.
(1) FI=MFI sample-MFI background/MFI background

[3] = test system: HLA-A*0201 transgenic mice; assay: ICS assay for CD8+ IFN-γ+ T cells in splenocytes of peptide-immunized mice; type: in vivo, mouse; details: for ICS CD8^+IFN-γ^+T cells, proportion in CD8^+ T cells: mice immunized s.c. with peptide 50 μg/mouse in Freund's adjuvant, 5 weekly doses, splenocytes stimulated with cognate peptide 10 μg/ml, 6 h, brefeldin A, CD3+CD8+ gate, mean ± SD, 4 mice/group, SD; for Cross-reactivity of peptide-specific CD8^+ T cells towards heterologous variant peptides: splenocytes of peptide-immunized mice stimulated with heterologous peptide 10 μg/ml, ELISPOT and ICS (Figures 4 and 7), result in words
Method: as §1
Splenocytes were cultured with either cognate peptide (10 μg/ml) or heterologous peptide (10 μg/ml) in a 1.5 ml microcentrifuge tube for 6 h at 37°C/5% CO2. […] During the last 5 h, brefeldin A (10 μg/ml) was added to each tube. After a 6 h incubation, cells were washed and then stained with APC-conjugated anti-mouse CD3 and FITC-conjugated anti-mouse CD8 antibodies (eBioscience company, USA) for 40 min at 4°C. Cells were then washed and fixed with 4% paraformaldehyde for 20 min at 4°C, permeabilized using 0.5% saponin for 10 min at 4 °C, and stained with PE-conjugated anti-mouse IFN-γ antibody (eBioscience company, USA) for 40 min at 4°C. A FACS Calibur flow cytometer (BD Bioscience, USA) was used to analyze labeled cells. CD3^+ CD8^+ T cells were gated and the proportion of IFN-γ-producing CD8^+ T cells (CD8^+ IFN-γ^+ T cells) as a subset of all CD8^+ T cells were determined.

| Sequence | ELISPOT IFN-γ spot-forming cells [1] | FI (fluorescence index) ([2]; peptide 1 μg (1 μg/ml)) | FI (fluorescence index) ([2]; peptide 10 μg (10 μg/ml)) | FI (fluorescence index) ([2]; peptide 100 μg (100 μg/ml)) | ICS CD8^+IFN-γ^+T cells, proportion in CD8^+ T cells [3] | FI (fluorescence index) ([2]; peptide 100 μg (100 μg/ml), listed as D3V-NS4b182–190) | Cross-reactivity of peptide-specific CD8^+ T cells towards heterologous variant peptides [3] | FI (fluorescence index) ([2]; peptide 100 μg (100 μg/ml), listed as D4V-NS4b179–187) | FI (fluorescence index) ([2]; peptide 100 μg (100 μg/ml), listed as D1V-NS4b183–191) | FI (fluorescence index) ([2]; peptide 100 μg (100 μg/ml), listed as D2V-NS4b182–190) | FI (fluorescence index) ([2]; peptide 100 μg (100 μg/ml), listed as D2V-NS2a144–152) | FI (fluorescence index) ([2]; peptide 100 μg (100 μg/ml), listed as D1V-NS2a144–152) | FI (fluorescence index) ([2]; peptide 100 μg (100 μg/ml), listed as D3V-NS2a144–152) |
| --- | --- | --- | --- | --- | --- | --- | --- | --- | --- | --- | --- | --- | --- |
| AILTVVAAT [D2V-NS4a140-148, D2V variant peptide of D1V-NS4a140-148, nonapeptide …] | 10 ± 3 SFCs/1×10^5cells | 0.1 | 0.2 | 1.2 | 0.12 ± 0.05% |  |  |  |  |  |  |  |  |
| AMVLSIVSL [D1V-NS2a169-177] |  | 0.03 | 0.05 | 0.04 |  |  |  |  |  |  |  |  |  |
| GILTLAAIV [D3V-NS4a140-148, D3V variant peptide of D1V-NS4a140-148, nonapeptide …] | 37 ± 6 SFCs/1×10^5cells | 0.1 | 0.15 |  | 0.37 ± 0.08% |  |  |  |  |  |  |  |  |
| LLMRTSWAL [D3V-NS4b182-190, D3V variant peptide of D1V-NS4b183-191, nonapeptide …] | 24 ± 5 SFCs/1×10^5cells | 0.22 | 0.65 | 3.6 | 0.27 ± 0.07% | > 1 | cross-reacted with each other |  |  |  |  |  |  |
| LLMRTTWAF [D4V-NS4b179-187, D4V variant peptide of D1V-NS4b183-191, nonapeptide …] | 22±4 SFCs/1×10^5cells | 0.2 | 0.59 | 4.4 | 0.16 ± 0.06% |  | cross-reacted with each other | > 4 |  |  |  |  |  |
| LLMRTTWAL [D1V-NS4b183-191] | 42 ± 7 SFCs/1×10^5cells | 0.29 | 0.4 | 1.95 | 0.44 ± 0.09% |  | marked cross-reactivity; also recorded: cross-reacted with each other |  | exceeds 1 |  |  |  |  |
| LMMRTTWAL [D2V-NS4b182-190, D2V variant peptide of D1V-NS4b183-191, nonapeptide …] | 37 ± 5 SFCs/1×10^5cells | 0.58 | 3.42 | 4.8 | 0.37 ± 0.09% |  | cross-reacted with each other |  |  | > 4 |  |  |  |
| LVMAFMAFL [D1V-C46-54] |  | 0.01 | 0.02 | 0.02 |  |  |  |  |  |  |  |  |  |
| MLLALIAVL [D1V-NS4a56-64] |  | 0.05 | 0.05 | 0.08 |  |  |  |  |  |  |  |  |  |
| QLAVTIMAI [D2V-NS2a144-152, D2V variant peptide of D1V-NS2a144-152, nonapeptide …] | 21±3 SFCs/1×10^5cells | 0.24 | 0.39 | 3.85 | 0.21 ± 0.05% |  |  |  |  |  | > 1 |  |  |
| QLWAALLSL [D1V-NS2a144-152] | 36 ± 6 SFCs/1×10^5cells | 0.05 | 0.22 | 1.12 | 0.41 ± 0.07% |  |  |  |  |  |  | exceeds 1 |  |
| QLWTALVSL [D3V-NS2a144-152, D3V variant peptide of D1V-NS2a144-152, nonapeptide …] | 62 ± 9 SFCs/1×10^5cells | 0.2 | 0.45 | 2.6 | 0.79 ± 0.15% |  |  |  |  |  |  |  | > 1 |
| QVGTLALSL [D4V-NS2a143-151, D4V variant peptide of D1V-NS2a144-152, nonapeptide …] | 12 ± 3 SFCs/1×10^5cells | 0.22 | 0.2 | 0.8 | 0.13 ± 0.06% |  |  |  |  |  |  |  |  |
| TILTIIGLI [D4V-NS4a140-148, D4V variant peptide of D1V-NS4a140-148, nonapeptide …] | 17 ± 5 SFCs/1×10^5cells | 0.15 | 0.3 | 1.08 | 0.21 ± 0.05% |  |  |  |  |  |  |  |  |
